Data reported in patent US8703768B2, “Nitrogen containing heteroaryl compounds” (Hoffmann-La Roche Inc., priority 2010, dated 2014).

The molecules below were run against human PDE10A (Homo sapiens (Human), UniProt Q9Y233) (assay: human PDE10A full length Scintillation Proximity Assay (SPA)). Conditions: 50 nM cGMP and 50 nM [3H]-cGMP, 20 minutes at room temperature; read-out: PDE10A inhibition IC50.
Type: biochemical
Procedure: The following test was carried out in order to determine the activity of the compounds of the present invention.
The human PDE10A full length assay was performed in 96-well micro titer plates. […] Non-specific activity was tested without the enzyme. The reaction was initiated by the addition of the substrate solution (cGMP and [^3H]-cGMP) and allowed to progress for 20 minutes at room temperature. The reaction was terminated by adding 25 μl of YSi-SPA scintillation beads (GE Healthcare, cat. # RPNQ0150) in 18 mM zinc sulphate solution (stop reagent). After 1 h under shaking, the plate was centrifuged one minute at 170 g to allow beads to settle. Afterwards, radioactive counts were measured on a Perkin Elmer TopCount Scintillation plate reader.

human PDE10A, sequence (Q9Y233 other isoform, or with tags, fused parts or gaps): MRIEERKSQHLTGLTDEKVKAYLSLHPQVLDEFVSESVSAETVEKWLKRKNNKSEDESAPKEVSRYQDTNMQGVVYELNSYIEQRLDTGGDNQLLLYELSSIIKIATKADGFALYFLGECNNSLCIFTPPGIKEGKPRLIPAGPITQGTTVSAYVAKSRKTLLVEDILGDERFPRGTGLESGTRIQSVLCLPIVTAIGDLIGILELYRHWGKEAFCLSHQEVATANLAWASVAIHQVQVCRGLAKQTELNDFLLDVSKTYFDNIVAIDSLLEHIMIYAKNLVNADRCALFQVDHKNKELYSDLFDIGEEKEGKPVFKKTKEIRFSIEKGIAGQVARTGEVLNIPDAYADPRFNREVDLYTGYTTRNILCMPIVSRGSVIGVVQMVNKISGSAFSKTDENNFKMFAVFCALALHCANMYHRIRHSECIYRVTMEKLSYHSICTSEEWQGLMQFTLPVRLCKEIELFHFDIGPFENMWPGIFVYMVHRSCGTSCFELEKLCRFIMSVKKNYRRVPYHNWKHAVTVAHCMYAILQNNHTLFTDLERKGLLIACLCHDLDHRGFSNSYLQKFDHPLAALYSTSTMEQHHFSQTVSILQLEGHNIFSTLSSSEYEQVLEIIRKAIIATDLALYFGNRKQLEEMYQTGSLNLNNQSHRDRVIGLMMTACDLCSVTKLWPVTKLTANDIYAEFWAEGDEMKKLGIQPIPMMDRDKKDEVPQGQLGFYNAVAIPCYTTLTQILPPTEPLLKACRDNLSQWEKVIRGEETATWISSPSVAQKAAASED

Row | IC50 | Compound
1 | 7.3 nM | Cn1cc(NC(=O)c2nc(C3CC3)ccc2Nc2cncnc2)c(C(=O)N2CCC(C)(C)C2)n1 [Example 32, 6-Cyclopropyl-3-(pyrimidin-5-ylamino)-pyridine-2-carboxylic acid [3-(3,3-dimethyl-pyrrolidine-1-carbonyl)-1-methyl-1H-pyrazol-4-yl]-amide]
2 | 3.1 nM | Cn1cc(NC(=O)c2nc(C3CC3)ccc2Nc2cncnc2)c(C(=O)NC2CCC2)n1 [Example 33, 6-Cyclopropyl-3-(pyrimidin-5-ylamino)-pyridine-2-carboxylic acid (3-cyclobutylcarbamoyl-1-methyl-1H-pyrazol-4-yl)-amide]
3 | 4.5 nM | Cn1cc(NC(=O)c2nc(C3CC3)ccc2Nc2cncnc2)c(C(=O)NC2CCCC2)n1 [Example 34, 6-Cyclopropyl-3-(pyrimidin-5-ylamino)-pyridine-2-carboxylic acid (3-cyclopentylcarbamoyl-1-methyl-1H-pyrazol-4-yl)-amide]
4 | 45.7 nM | CC1CCC(C)N1C(=O)c1nn(C)cc1NC(=O)c1nc(C2CC2)ccc1Nc1cncnc1 (stereo not drawn) [Example 35, 6-Cyclopropyl-3-(pyrimidin-5-ylamino)-pyridine-2-carboxylic acid [3-(2,5-dimethyl-pyrrolidine-1-carbonyl)-1-methyl-1H-pyrazol-4-yl]-amide]
5 | 3.2 nM | Cn1cc(NC(=O)c2nc(C3CC3)ccc2Nc2cncnc2)c(C(=O)N2CCC(F)(F)C2)n1 [Example 36, 6-Cyclopropyl-3-(pyrimidin-5-ylamino)-pyridine-2-carboxylic acid [3-(3,3-difluoro-pyrrolidine-1-carbonyl)-1-methyl-1H-pyrazol-4-yl]-amide]
6 | 18.1 nM | CN(C)C1CCN(C(=O)c2nn(C)cc2NC(=O)c2nc(C3CC3)ccc2Nc2cncnc2)C1 (stereo not drawn) [Example 37, 6-Cyclopropyl-3-(pyrimidin-5-ylamino)-pyridine-2-carboxylic acid [3-(3-dimethylamino-pyrrolidine-1-carbonyl)-1-methyl-1H-pyrazol-4-yl]-amide]
7 | 7.2 nM | CN(CCCO)C(=O)c1nn(C)cc1NC(=O)c1nc(C2CC2)ccc1Nc1cncnc1 [Example 38, 6-Cyclopropyl-3-(pyrimidin-5-ylamino)-pyridine-2-carboxylic acid {3-[(3-hydroxy-propyl)-methyl-carbamoyl]-1-methyl-1H-pyrazol-4-yl}-amide]
8 | 7.5 nM | CN(CCO)C(=O)c1nn(C)cc1NC(=O)c1nc(C2CC2)ccc1Nc1cncnc1 [Example 40, 6-Cyclopropyl-3-(pyrimidin-5-ylamino)-pyridine-2-carboxylic acid {3-[(2-hydroxy-ethyl)-methyl-carbamoyl]-1-methyl-1H-pyrazol-4-yl}-amide]
9 | 6.9 nM | COCC(C)NC(=O)c1nn(C)cc1NC(=O)c1nc(C2CC2)ccc1Nc1cncnc1 (stereo not drawn) [Example 41, 6-Cyclopropyl-3-(pyrimidin-5-ylamino)-pyridine-2-carboxylic acid [3-(2-methoxy-1-methyl-ethylcarbamoyl)-1-methyl-1H-pyrazol-4-yl]-amide]
10 | 8.1 nM | Cn1cc(NC(=O)c2nc(C3CC3)ccc2Nc2cncnc2)c(C(=O)NCC(O)CO)n1 (stereo not drawn) [Example 42, 6-Cyclopropyl-3-(pyrimidin-5-ylamino)-pyridine-2-carboxylic acid [3-(2,3-dihydroxy-propylcarbamoyl)-1-methyl-1H-pyrazol-4-yl]-amide]
11 | 3.1 nM | Cn1cc(NC(=O)c2nc(C3CC3)ccc2Nc2cncnc2)c(C(=O)NCC(C)(C)O)n1 [Example 43, 6-Cyclopropyl-3-(pyrimidin-5-ylamino)-pyridine-2-carboxylic acid [3-(2-hydroxy-2-methyl-propylcarbamoyl)-1-methyl-1H-pyrazol-4-yl]-amide]
12 | 27.4 nM | Cn1cc(NC(=O)c2nc(C3CC3)ccc2Nc2cncnc2)c(C(=O)N2CCC(O)C2)n1 (stereo not drawn) [Example 44, 6-Cyclopropyl-3-(pyrimidin-5-ylamino)-pyridine-2-carboxylic acid [3-(3-hydroxy-pyrrolidine-1-carbonyl)-1-methyl-1H-pyrazol-4-yl]-amide]
13 | 17.1 nM | CC(CO)NC(=O)c1nn(C)cc1NC(=O)c1nc(C2CC2)ccc1Nc1cncnc1 (stereo not drawn) [Example 45, 6-Cyclopropyl-3-(pyrimidin-5-ylamino)-pyridine-2-carboxylic acid [3-(2-hydroxy-1-methyl-ethylcarbamoyl)-1-methyl-1H-pyrazol-4-yl]-amide]
14 | 19.3 nM | CN(CC(O)CO)C(=O)c1nn(C)cc1NC(=O)c1nc(C2CC2)ccc1Nc1cncnc1 (stereo not drawn) [Example 46, 6-Cyclopropyl-3-(pyrimidin-5-ylamino)-pyridine-2-carboxylic acid {3-[(2,3-dihydroxy-propyl)-methyl-carbamoyl]-1-methyl-1H-pyrazol-4-yl}-amide]
15 | 13.2 nM | Cn1cc(NC(=O)c2nc(C3CC3)ccc2Nc2cncnc2)c(C(=O)N2CCNC(=O)C2)n1 [Example 47, 6-Cyclopropyl-3-(pyrimidin-5-ylamino)-pyridine-2-carboxylic acid [1-methyl-3-(3-oxo-piperazine-1-carbonyl)-1H-pyrazol-4-yl]-amide]
16 | 8.3 nM | COC1CCN(C(=O)c2nn(C)cc2NC(=O)c2nc(C3CC3)ccc2Nc2cncnc2)C1 (stereo not drawn) [Example 48, 6-Cyclopropyl-3-(pyrimidin-5-ylamino)-pyridine-2-carboxylic acid [3-(3-methoxy-pyrrolidine-1-carbonyl)-1-methyl-1H-pyrazol-4-yl]-amide]
17 | 3.9 nM | Cn1cc(NC(=O)c2nc(C3CC3)ccc2Nc2cncnc2)c(C(=O)N2CCCC2CO)n1 (stereo not drawn) [Example 49, 6-Cyclopropyl-3-(pyrimidin-5-ylamino)-pyridine-2-carboxylic acid [3-(2-hydroxymethyl-pyrrolidine-1-carbonyl)-1-methyl-1H-pyrazol-4-yl]-amide]
18 | 31.7 nM | Cn1cc(NC(=O)c2nc(C3CC3)ccc2Nc2cncnc2)c(C(=O)N2CC(O)C2)n1 [Example 50, 6-Cyclopropyl-3-(pyrimidin-5-ylamino)-pyridine-2-carboxylic acid [3-(3-hydroxy-azetidine-1-carbonyl)-1-methyl-1H-pyrazol-4-yl]-amide]
19 | 58 nM | Cn1cc(NC(=O)c2nc(C3CC3)ccc2Nc2cncnc2)c(C(=O)N2CC3(COC3)C2)n1 [Example 51, 6-Cyclopropyl-3-(pyrimidin-5-ylamino)-pyridine-2-carboxylic acid [1-methyl-3-(2-oxa-6-aza-spiro[3.3]heptane-6-carbonyl)-1H-pyrazol-4-yl]-amide]
20 | 73.7 nM | CN(C)C1CCN(C(=O)c2ccncc2NC(=O)c2nc(C3CC3)ccc2Nc2cncnc2)C1 (stereo not drawn) [Example 53, 6-Cyclopropyl-3-(pyrimidin-5-ylamino)-pyridine-2-carboxylic acid [4-(3-dimethylamino-pyrrolidine-1-carbonyl)-pyridin-3-yl]-amide]
21 | 25 nM | CNC(=O)c1nnsc1NC(=O)c1nc(C2CC2)ccc1Nc1cncnc1 [Example 54, 6-Cyclopropyl-3-(pyrimidin-5-ylamino)-pyridine-2-carboxylic acid (4-methylcarbamoyl-[1,2,3]thiadiazol-5-yl)-amide]
22 | 115 nM | CC1CCCN1C(=O)c1ccncc1NC(=O)c1nc(C2CC2)ccc1Nc1cncnc1 (stereo not drawn) [Example 55, 6-Cyclopropyl-3-(pyrimidin-5-ylamino)-pyridine-2-carboxylic acid [4-(2-methyl-pyrrolidine-1-carbonyl)-pyridin-3-yl]-amide]
23 | 65.7 nM | O=C(Nc1cnccc1C(=O)N1CCC(F)(F)C1)c1nc(C2CC2)ccc1Nc1cncnc1 [Example 56, 6-Cyclopropyl-3-(pyrimidin-5-ylamino)-pyridine-2-carboxylic acid [4-(3,3-difluoro-pyrrolidine-1-carbonyl)-pyridin-3-yl]-amide]
24 | 2.1 nM | O=C(NC1CC1)c1ccncc1NC(=O)c1nc(C2CC2)ccc1Nc1cncnc1 [Example 57, 6-Cyclopropyl-3-(pyrimidin-5-ylamino)-pyridine-2-carboxylic acid (4-cyclopropylcarbamoyl-pyridin-3-yl)-amide]
25 | 1.1 nM | O=C(NC1CCC1)c1ccncc1NC(=O)c1nc(C2CC2)ccc1Nc1cncnc1 [Example 58, 6-Cyclopropyl-3-(pyrimidin-5-ylamino)-pyridine-2-carboxylic acid (4-cyclobutylcarbamoyl-pyridin-3-yl)-amide]
26 | 84.4 nM | CC1CCC(C)N1C(=O)c1ccncc1NC(=O)c1nc(C2CC2)ccc1Nc1cncnc1 (stereo not drawn) [Example 59, 6-Cyclopropyl-3-(pyrimidin-5-ylamino)-pyridine-2-carboxylic acid [4-(2,5-dimethyl-pyrrolidine-1-carbonyl)-pyridin-3-yl]-amide]
27 | 232 nM | O=C1CN(C(=O)c2ccncc2NC(=O)c2nc(C3CC3)ccc2Nc2cncnc2)CCN1 [Example 60, 6-Cyclopropyl-3-(pyrimidin-5-ylamino)-pyridine-2-carboxylic acid [4-(3-oxo-piperazine-1-carbonyl)-pyridin-3-yl]-amide]
28 | 1.3 nM | O=C(NC1CCCC1)c1ccncc1NC(=O)c1nc(C2CC2)ccc1Nc1cncnc1 [Example 61, 6-Cyclopropyl-3-(pyrimidin-5-ylamino)-pyridine-2-carboxylic acid (4-cyclopentylcarbamoyl-pyridin-3-yl)-amide]
29 | 93.9 nM | COC1CCN(C(=O)c2ccncc2NC(=O)c2nc(C3CC3)ccc2Nc2cncnc2)C1 (stereo not drawn) [Example 62, 6-Cyclopropyl-3-(pyrimidin-5-ylamino)-pyridine-2-carboxylic acid [4-(3-methoxy-pyrrolidine-1-carbonyl)-pyridin-3-yl]-amide]
30 | 87 nM | CC1(C)CCN(C(=O)c2ccncc2NC(=O)c2nc(C3CC3)ccc2Nc2cncnc2)C1 [Example 63, 6-Cyclopropyl-3-(pyrimidin-5-ylamino)-pyridine-2-carboxylic acid [4-(3,3-dimethyl-pyrrolidine-1-carbonyl)-pyridin-3-yl]-amide]
